Reference: ChEMBL document CHEMBL1201862, “PubChem BioAssay data set” (2004)
Active and inactive are the calls of the source.

Assays:
Ion channel NompC = Ion channel NompC (Danio rerio, UniProt Q7T1G6); assay: Dose response cell-based high-throughput screening assay for agonists of the transient receptor potential channel N1 (TRPN1). [Related pubchem assays (depositor defined):AID1424, AID1448]; type: functional
Mucolipin-3 = target: T1, Mucolipin-3 (Homo sapiens, UniProt Q8TDD5); assay: Fluorescence counterscreen assay for […] agonists: dose response cell-based high-throughput screening assay to identify agonists of the transient receptor potential channel ML3 (TRPML3). [Related pubchem assays: 1424, 1448 ]; type: functional
T1 sequence (Q8TDD5 whole entry): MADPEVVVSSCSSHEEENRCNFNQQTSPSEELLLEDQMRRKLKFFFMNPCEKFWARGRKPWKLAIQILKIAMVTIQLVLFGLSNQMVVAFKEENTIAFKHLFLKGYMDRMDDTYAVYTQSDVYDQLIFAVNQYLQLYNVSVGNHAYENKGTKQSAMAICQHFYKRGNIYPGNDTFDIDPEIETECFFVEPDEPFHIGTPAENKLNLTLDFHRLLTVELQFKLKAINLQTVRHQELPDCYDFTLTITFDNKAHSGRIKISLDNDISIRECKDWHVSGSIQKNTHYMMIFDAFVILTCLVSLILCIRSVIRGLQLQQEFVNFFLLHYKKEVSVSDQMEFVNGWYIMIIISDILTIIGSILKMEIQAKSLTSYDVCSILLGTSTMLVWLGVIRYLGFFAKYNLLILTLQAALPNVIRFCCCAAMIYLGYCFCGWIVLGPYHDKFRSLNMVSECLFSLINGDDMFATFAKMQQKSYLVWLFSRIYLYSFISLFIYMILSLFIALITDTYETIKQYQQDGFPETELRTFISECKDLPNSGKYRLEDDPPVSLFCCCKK

[1] = target: Heat shock protein HSP 90-alpha (Homo sapiens, UniProt P07900); type: functional, organism-based
[2] = cAMP pathway inhibition in counterscreen cell line – TR-FRET cAMP detection, counter-screen for MC4R biased antagonist project, dose response (AID 602305); type: functional, cell-based;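 also: U2OS cells stimulated with forskolin near its EC80 as the cAMP inducer; potency is for inhibition of forskolin-stimulated cAMP signaling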
[3] = Luminescence Cell-Based Dose Retest to Confirm Inhibitors of Cancer Stem Cells. [Related pubchem assays (depositor defined):AID2717, AID2721]; type: functional; settings: Homo sapiens
Melanocortin receptor 4 = Melanocortin receptor 4 (Homo sapiens, UniProt P32245); assay: inhibitors of MC4R cAMP signaling – cell-based, TR-FRET, biased antagonists, dose response (AID 602298); type: functional;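 also: antagonist potency against agonist-stimulated cAMP production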
[4] = target: T2, Short transient receptor potential channel 4 (Mus musculus, UniProt Q9QUQ5); assay: potentiation of DAMGO-evoked TRPC4 calcium signal – cell-based, HEK293 TRPC4/mu-opioid, Fluo-4 calcium, EC20 DAMGO, dose response (AID 434941); type: functional
T2 sequence (Q9QUQ5 whole entry): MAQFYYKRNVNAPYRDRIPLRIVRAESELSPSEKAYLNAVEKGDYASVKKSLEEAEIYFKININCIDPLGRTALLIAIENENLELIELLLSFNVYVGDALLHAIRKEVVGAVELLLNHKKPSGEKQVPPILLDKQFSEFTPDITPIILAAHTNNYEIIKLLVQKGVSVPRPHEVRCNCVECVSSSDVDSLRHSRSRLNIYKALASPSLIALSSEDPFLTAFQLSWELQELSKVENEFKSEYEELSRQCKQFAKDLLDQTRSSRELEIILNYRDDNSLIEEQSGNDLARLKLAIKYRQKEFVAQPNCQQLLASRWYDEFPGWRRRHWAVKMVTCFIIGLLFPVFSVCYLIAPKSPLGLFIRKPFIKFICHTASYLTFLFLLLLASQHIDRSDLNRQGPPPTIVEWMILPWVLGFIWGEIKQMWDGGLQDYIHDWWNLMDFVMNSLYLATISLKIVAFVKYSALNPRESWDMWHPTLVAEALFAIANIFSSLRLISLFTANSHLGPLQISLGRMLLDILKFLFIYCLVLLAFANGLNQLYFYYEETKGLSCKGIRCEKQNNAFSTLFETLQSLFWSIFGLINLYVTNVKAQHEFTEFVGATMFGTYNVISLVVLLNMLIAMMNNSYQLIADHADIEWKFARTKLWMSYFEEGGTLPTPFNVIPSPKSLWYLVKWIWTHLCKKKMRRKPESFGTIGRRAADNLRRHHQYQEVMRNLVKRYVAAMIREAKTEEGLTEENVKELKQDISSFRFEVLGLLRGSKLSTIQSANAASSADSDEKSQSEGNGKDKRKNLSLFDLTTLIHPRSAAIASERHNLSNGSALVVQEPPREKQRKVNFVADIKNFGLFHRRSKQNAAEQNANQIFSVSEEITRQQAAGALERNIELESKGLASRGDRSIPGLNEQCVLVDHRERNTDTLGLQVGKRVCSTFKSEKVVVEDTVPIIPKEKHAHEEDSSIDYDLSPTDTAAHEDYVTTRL

Coagulation factor XII = target: T3, Coagulation factor XII (Homo sapiens, UniProt P00748); assay: activated coagulation factor XII inhibitor potency, concentration-effect curve, cell-free (AID 716); type: functional
T3 sequence (P00748 whole entry): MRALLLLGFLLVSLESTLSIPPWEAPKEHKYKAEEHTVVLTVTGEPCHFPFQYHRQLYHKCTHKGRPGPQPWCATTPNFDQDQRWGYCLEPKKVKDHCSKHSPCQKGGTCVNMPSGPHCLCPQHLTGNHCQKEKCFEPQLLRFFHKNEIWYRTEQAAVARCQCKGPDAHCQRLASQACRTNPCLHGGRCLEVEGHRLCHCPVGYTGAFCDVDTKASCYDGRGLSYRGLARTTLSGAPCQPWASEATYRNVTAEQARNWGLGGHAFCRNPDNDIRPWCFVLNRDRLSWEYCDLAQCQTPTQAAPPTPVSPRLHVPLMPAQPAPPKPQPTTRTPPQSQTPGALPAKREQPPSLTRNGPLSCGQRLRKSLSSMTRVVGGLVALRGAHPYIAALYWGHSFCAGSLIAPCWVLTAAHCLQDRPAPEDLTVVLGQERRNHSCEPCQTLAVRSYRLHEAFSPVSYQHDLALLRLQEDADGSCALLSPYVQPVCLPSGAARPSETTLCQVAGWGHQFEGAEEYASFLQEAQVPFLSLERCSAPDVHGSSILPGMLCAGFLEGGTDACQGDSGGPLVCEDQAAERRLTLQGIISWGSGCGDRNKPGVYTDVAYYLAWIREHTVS

[5] = target: Protein phosphatase methylesterase 1 (Homo sapiens, UniProt Q9Y570); assay: inhibition of PME-1 probe labeling – gel-based ABPP, IC50, set 1, late-stage follow-up (AID 463130); type: functional
[6] = target: DNA damage-inducible transcript 3 protein (Mus musculus, UniProt P35639); type: functional, Cricetulus griseus
X-box-binding protein 1 = X-box-binding protein 1 (Homo sapiens, UniProt P17861); type: functional, Cricetulus griseus;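 also: confirmatory dose-response counter-screen serving a CHOP assay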
[7] = target: T4, Kappa-type opioid receptor (Homo sapiens, UniProt P41145); assay: SAR analysis of small molecule antagonists of the kappa opioid receptor via a luminescent beta-arrestin assay - Set 3. [Related pubchem assays (depositor defined):AID1777, AID1778, AID1785, AID1786, AID1966, AID2133, AID2136, AID2285, AID2495]; type: functional
Mu-type opioid receptor = Mu-type opioid receptor (Homo sapiens, UniProt P35372); assay: SAR Analysis of Antagonists of the MOR Receptor using an Image-Based Assay - Set 3. [Related pubchem assays (depositor defined):AID1777, AID1785, AID1786, AID1966, AID2133, AID2136, AID2284, AID2285, AID2420]; type: functional
[8] = target: Delta-type opioid receptor (Homo sapiens, UniProt P41143); assay: SAR Analysis of Antagonists of the DOR Receptor using an Image-Based Assay - Set 3. [Related pubchem assays (depositor defined):AID1777, AID1785]; type: functional;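 also: U2OS cells expressing DOR1 and beta-arrestin GFP stimulated with 100 nM SNC80; imaging of GFP-tagged beta-arrestin moving into spots after receptor activation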
[9] = target: T4, Kappa-type opioid receptor; assay: SAR analysis of Antagonists of the Kappa Opioid Receptor (KOR) using an Image-Based Assay - Set 3. [Related pubchem assays (depositor defined):AID1777, AID1785]; type: functional
Hexokinase = Hexokinase (Trypanosoma brucei, UniProt Q38C41); assay: Confirmation assay for inhibitors of Trypanosoma brucei hexokinase 1-Analogue-first series. [Related pubchem assays (depositor defined):AID1430, AID1632, AID2516, AID2560, AID2579, AID2600, AID449725, AID492951]; type: functional
[10] = target: T5, G-protein coupled receptor 35 (Homo sapiens, UniProt Q9HC97); assay: SAR analysis of Antagonists of the GPR35 Receptor using an Image-Based Assay - Set 4. [Related pubchem assays (depositor defined):[…]]; type: functional
[11] = target: G-protein coupled receptor 55 (Homo sapiens, UniProt Q9Y2T6); assay: SAR analysis of selective Agonists of GPR55 using an Image-Based Assay - Set 2. [Related pubchem assays (depositor defined):AID1961, AID1965]; type: functional
Cannabinoid receptor 2 [12] = target: T6, Cannabinoid receptor 2 (Homo sapiens, UniProt P34972); assay: SAR analysis of antagonists of the Cannabinoid Receptor 2 using an Image-Based Assay - Set 2. [Related pubchem assays (depositor defined):AID1961, AID1965]; type: functional
[13] = target: T5, G-protein coupled receptor 35; assay: SAR analysis of Agonists of the GPR35 Receptor using an Image-Based Assay - Set 3. [Related pubchem assays (depositor defined):AID1961, AID1965]; type: functional
Cannabinoid receptor 1 [14] = target: T7, Cannabinoid receptor 1 (Homo sapiens, UniProt P21554); assay: SAR analysis of antagonists of the Cannabinoid Receptor 1 using an Image-Based Assay - Set 3. [Related pubchem assays (depositor defined):AID1961, AID1965]; type: functional
Cannabinoid receptor 2 [15] = target: T6, Cannabinoid receptor 2; assay: SAR analysis of agonists of the Cannabinoid Receptor 2 using an Image-Based Assay - Set 2. [Related pubchem assays (depositor defined):AID1961, AID1965]; type: functional
Cannabinoid receptor 1 [16] = target: T7, Cannabinoid receptor 1; assay: SAR analysis of agonists of the Cannabinoid Receptor 1 using an Image-Based Assay - Set 3. [Related pubchem assays (depositor defined):AID1961, AID1965]; type: functional
[17] = target: T4, Kappa-type opioid receptor; assay: SAR analysis of Antagonists of the Kappa Opioid Receptor (KOR) using an Image-Based Assay - Set 4. [Related pubchem assays (depositor defined):AID1777, AID1785]; type: functional
[18] = target: T4, Kappa-type opioid receptor; assay: SAR analysis of small molecule antagonists of the kappa opioid receptor via a luminescent beta-arrestin assay - Set 6. [Related pubchem assays (depositor defined):AID1777, AID1778, AID1785, AID1786, AID1966, AID2133, AID2136, AID2285]; type: functional
[19] = target: T4, Kappa-type opioid receptor; assay: SAR analysis of small molecule antagonists of the kappa opioid receptor via a luminescent beta-arrestin assay - Set 4. [Related pubchem assays (depositor defined):AID1777, AID1778, AID1785, AID1786, AID1966, AID2133, AID2136, AID2285]; type: functional
[20] = target: Nucleotide-binding oligomerization domain-containing protein 2 (Homo sapiens, UniProt Q9HC29); assay: inhibition of NOD2-driven NF-kB reporter – cell-based, luminescence, uHTS, HEK293 (AID 1566); type: functional
HEK293 [21] = assay: cells; type: functional, cell-based; settings: Homo sapiens
HEK293 [22] = assay: inhibition of NOD1-driven NF-kB reporter – cell-based, luminescence, uHTS, primary screen (AID 1578); type: functional; settings: Homo sapiens
HEK293 [23] = assay: cells; type: functional, cell-based; settings: Homo sapiens; remark: listed apart in the source
HEK293 [24] = assay: NOD2 signaling inhibitors in MDP-stimulated cells, cell-based, uHTS, luminescence (AID 2001); type: functional; settings: Homo sapiens

T4 sequence (P41145 whole entry): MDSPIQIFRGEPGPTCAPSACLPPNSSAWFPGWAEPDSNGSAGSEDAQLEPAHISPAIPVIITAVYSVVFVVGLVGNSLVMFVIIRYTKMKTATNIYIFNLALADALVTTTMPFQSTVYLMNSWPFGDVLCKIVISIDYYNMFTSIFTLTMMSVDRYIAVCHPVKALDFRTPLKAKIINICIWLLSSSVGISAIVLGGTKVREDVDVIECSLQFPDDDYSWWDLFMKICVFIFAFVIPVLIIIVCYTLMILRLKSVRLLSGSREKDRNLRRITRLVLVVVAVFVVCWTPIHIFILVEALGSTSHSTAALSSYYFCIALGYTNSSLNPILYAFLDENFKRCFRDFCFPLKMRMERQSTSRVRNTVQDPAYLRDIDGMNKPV
Mu-type opioid receptor, sequence (P35372 whole entry): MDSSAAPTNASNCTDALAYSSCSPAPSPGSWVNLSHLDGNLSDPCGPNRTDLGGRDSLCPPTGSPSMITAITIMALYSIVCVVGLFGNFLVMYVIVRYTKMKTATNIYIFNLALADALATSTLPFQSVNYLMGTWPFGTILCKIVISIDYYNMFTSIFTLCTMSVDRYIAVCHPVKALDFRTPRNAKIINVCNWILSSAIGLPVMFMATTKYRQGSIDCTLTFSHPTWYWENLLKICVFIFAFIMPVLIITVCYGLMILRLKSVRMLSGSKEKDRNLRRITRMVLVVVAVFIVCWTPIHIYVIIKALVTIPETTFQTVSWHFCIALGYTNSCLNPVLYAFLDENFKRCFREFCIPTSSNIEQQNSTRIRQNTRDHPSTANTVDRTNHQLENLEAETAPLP
T5 sequence (Q9HC97 whole entry): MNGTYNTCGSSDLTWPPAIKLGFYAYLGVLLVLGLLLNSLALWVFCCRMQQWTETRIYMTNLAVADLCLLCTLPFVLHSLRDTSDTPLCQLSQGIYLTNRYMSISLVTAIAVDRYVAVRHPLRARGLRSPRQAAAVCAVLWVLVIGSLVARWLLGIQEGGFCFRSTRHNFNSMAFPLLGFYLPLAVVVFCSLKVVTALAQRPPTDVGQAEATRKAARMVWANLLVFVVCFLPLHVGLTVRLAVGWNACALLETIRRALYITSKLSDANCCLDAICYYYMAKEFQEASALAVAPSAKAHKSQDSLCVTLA
T7 sequence (P21554 whole entry): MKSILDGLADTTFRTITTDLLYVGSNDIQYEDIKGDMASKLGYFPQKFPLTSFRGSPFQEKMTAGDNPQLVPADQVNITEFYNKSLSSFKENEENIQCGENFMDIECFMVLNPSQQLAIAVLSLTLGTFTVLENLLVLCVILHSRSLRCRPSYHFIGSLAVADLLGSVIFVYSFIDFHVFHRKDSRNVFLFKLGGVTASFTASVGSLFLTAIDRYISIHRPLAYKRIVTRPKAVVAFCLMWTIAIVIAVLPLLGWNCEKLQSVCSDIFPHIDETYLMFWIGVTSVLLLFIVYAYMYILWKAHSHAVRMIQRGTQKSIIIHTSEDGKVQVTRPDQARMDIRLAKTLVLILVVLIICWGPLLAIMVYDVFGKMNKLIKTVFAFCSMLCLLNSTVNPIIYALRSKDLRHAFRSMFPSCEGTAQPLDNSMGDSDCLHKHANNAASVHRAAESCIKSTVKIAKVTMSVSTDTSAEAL
Delta-type opioid receptor, sequence (P41143 whole entry): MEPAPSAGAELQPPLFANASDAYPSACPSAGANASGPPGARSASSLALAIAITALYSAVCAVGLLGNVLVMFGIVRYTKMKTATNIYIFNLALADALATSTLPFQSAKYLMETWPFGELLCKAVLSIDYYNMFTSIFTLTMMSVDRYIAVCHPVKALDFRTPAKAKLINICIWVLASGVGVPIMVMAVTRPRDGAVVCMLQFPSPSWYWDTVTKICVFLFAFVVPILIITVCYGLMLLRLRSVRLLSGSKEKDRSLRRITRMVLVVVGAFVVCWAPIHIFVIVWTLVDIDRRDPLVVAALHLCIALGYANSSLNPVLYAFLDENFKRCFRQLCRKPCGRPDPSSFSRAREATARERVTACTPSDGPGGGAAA
T6 sequence (P34972 whole entry): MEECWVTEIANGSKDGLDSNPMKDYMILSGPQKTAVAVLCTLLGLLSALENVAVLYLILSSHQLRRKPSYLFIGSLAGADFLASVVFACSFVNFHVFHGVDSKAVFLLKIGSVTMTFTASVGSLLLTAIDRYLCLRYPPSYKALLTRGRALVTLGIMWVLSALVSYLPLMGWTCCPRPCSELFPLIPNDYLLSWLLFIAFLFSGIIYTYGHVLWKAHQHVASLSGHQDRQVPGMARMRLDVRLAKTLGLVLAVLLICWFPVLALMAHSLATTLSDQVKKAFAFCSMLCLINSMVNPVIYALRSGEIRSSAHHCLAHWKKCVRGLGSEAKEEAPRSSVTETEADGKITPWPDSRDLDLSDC
G-protein coupled receptor 55, sequence (Q9Y2T6 whole entry): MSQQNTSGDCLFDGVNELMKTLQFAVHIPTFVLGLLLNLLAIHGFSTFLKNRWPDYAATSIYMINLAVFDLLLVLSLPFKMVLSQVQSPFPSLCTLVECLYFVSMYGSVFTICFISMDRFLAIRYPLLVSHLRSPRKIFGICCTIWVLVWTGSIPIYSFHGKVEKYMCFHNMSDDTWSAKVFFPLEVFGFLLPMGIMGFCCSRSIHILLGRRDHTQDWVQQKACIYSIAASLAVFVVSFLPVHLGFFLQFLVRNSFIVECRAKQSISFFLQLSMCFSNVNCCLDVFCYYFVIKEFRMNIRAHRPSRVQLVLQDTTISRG
Melanocortin receptor 4, sequence (P32245 whole entry): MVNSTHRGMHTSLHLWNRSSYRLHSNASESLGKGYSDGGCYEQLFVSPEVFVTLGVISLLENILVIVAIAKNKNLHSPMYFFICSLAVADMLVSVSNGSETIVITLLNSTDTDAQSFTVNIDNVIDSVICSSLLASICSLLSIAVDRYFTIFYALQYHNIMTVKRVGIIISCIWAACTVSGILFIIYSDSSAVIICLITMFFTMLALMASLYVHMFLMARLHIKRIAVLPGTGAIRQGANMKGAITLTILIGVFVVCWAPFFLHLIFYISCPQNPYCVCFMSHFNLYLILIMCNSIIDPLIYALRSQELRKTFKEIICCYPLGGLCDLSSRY
X-box-binding protein 1, sequence (P17861 whole entry): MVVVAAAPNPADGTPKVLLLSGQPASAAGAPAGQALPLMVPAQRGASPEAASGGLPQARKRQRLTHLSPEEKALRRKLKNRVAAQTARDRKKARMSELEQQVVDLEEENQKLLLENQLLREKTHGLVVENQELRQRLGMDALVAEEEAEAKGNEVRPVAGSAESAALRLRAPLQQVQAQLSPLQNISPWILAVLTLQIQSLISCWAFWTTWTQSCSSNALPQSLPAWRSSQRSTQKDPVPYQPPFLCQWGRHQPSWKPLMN
DNA damage-inducible transcript 3 protein, sequence (P35639 whole entry): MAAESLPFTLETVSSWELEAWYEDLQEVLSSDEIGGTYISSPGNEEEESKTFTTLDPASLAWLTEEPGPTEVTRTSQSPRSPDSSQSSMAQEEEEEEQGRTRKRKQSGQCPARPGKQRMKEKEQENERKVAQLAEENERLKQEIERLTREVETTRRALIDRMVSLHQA
Protein phosphatase methylesterase 1, sequence (Q9Y570 whole entry): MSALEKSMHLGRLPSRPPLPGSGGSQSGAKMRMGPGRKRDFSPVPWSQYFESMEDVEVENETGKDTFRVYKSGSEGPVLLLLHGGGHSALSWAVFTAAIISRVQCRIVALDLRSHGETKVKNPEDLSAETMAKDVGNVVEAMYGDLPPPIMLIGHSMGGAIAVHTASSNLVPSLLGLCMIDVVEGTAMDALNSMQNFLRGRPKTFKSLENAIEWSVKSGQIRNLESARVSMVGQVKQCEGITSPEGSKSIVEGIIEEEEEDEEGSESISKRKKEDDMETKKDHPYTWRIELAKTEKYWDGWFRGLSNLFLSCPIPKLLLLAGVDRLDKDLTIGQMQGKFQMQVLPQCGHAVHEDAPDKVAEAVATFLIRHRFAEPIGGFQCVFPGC
Nucleotide-binding oligomerization domain-containing protein 2, sequence (Q9HC29 whole entry, the tested form may be a part): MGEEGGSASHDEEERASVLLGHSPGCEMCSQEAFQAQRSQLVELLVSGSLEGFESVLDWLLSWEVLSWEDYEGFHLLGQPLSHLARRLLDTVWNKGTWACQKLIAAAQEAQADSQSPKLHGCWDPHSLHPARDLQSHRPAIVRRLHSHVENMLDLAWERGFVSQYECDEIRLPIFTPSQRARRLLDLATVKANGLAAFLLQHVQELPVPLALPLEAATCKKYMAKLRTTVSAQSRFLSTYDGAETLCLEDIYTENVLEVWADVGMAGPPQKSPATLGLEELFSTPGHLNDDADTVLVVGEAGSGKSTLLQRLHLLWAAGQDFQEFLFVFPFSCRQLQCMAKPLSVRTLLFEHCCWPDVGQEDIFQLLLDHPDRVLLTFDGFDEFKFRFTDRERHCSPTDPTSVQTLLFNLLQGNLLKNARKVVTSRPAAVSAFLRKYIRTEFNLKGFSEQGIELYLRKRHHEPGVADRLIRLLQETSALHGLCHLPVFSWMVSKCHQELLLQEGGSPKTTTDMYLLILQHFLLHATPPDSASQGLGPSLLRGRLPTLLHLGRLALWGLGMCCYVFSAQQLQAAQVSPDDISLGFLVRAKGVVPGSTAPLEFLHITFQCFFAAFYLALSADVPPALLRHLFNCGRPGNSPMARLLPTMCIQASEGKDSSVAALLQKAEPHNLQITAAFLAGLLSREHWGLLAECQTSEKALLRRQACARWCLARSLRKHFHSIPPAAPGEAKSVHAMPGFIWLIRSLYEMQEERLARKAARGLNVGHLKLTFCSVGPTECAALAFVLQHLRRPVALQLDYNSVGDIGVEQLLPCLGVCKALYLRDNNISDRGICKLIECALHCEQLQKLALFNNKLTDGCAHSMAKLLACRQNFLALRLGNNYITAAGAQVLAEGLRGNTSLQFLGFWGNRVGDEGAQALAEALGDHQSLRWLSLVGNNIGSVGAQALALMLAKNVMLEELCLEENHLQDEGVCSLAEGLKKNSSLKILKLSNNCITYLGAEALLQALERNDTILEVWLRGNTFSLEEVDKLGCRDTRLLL

SMILES: O=C(Nc1ccccc1)Nc1ccc2snnc2c1
- EC50 (Ion channel NompC): > 29.9 µM (inactive)
- EC50 (Mucolipin-3): > 29.9 µM (not active)

SMILES: CC1CCN(c2nc(Cl)nc(Nc3ccc([N+](=O)[O-])cc3)n2)CC1
- AC50 [1]: 17.6 µM (active)
- IC50 [2]: > 64.5 µM (inactive)
- AC50 [3]: 2.99 µM (active)
- IC50 (Melanocortin receptor 4): > 64.5 µM (inactive)
- EC50 [4]: 3.35 µM (active)

SMILES: COC(=O)c1ccccc1NC(=O)N1CCN(C(=O)c2ccco2)CC1
- IC50 (Coagulation factor XII): > 50 µM (inactive)

SMILES: COC(=O)N1C(=O)[C@](c2ccsc2)(C(C)C)N1C(=O)OC
- IC50 [5]: 10.7 µM (inactive)

SMILES: O=C(Nc1ccccc1O)c1c(O)nc2c(c1O)CCCC2
- Absolute IC50 (CHOP) [6]: 10 µM
- Absolute IC50 (XBP1) (X-box-binding protein 1): 10 µM

SMILES: Cc1ccc(Cl)cc1N1CCN(CCNC(=O)Cn2c(=O)c3cccn3c3cccnc32)CC1
- IC50 [7]: > 20 µM (inactive)
- IC50 (Mu-type opioid receptor): 3.98 µM (active)
- IC50 [8]: > 32 µM (inactive)
- IC50 [9]: > 32 µM (inactive)

SMILES: CCOC(=O)c1ccncc1NC(=O)c1ccc(OC)cc1
- IC50 (Hexokinase): > 25 µM (inactive)

SMILES: CCN(CC)S(=O)(=O)c1ccc(N2CCCCC2)c(C(=O)N2CCN(c3ccccc3)CC2)c1
- IC50 [10]: > 32 µM (inactive)
- EC50 [11]: > 32 µM (inactive)
- IC50 (Cannabinoid receptor 2 [12]): > 32 µM (inactive)
- EC50 [13]: > 32 µM (inactive)
- IC50 (Cannabinoid receptor 1 [14]): 9.36 µM (active)
- EC50 (Cannabinoid receptor 2 [15]): > 32 µM (inactive)
- EC50 (Cannabinoid receptor 1 [16]): > 32 µM (inactive)

SMILES: Cc1ccc(S(=O)(=O)NCc2ccc(C(=O)NCCN(Cc3ccccc3)C3CCCC3)cc2)cc1
- IC50 (Mu-type opioid receptor): 3.31 µM (active)
- IC50 [17]: 0.137 µM (active)
- IC50 [18]: 0.71 µM (active)
- IC50 [8]: > 32 µM (inactive)
- IC50 [19]: 0.558 µM (active)

SMILES: Cc1c(/C=N/NC(=O)c2ccccc2O)c2ccccn2c1C(=O)c1ccc(F)cc1
- EC50 [20]: 6.46 µM (active)
- IC50 (HEK293 [21]): 10.9 µM (active)
- EC50 (HEK293 [22]): 10.3 µM (active)
- IC50 (HEK293 [23]): 11.5 µM (active)
- IC50 (HEK293 [24]): 6.49 µM (active)
